Tests used:
[1] = biological target: Substance-P receptor (Homo sapiens, UniProt P25103); assay type: cell membranes, CHO, Membrane; conditions: cho
[2] = biological target: T1, Thromboxane-A synthase (Homo sapiens, UniProt P24557); assay: biochemical; assay type: tissue-based, Platelet; conditions: platelet;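 further: enzyme inhibition assay with PGH2 supplied as substrate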
T1 sequence (P24557 whole entry): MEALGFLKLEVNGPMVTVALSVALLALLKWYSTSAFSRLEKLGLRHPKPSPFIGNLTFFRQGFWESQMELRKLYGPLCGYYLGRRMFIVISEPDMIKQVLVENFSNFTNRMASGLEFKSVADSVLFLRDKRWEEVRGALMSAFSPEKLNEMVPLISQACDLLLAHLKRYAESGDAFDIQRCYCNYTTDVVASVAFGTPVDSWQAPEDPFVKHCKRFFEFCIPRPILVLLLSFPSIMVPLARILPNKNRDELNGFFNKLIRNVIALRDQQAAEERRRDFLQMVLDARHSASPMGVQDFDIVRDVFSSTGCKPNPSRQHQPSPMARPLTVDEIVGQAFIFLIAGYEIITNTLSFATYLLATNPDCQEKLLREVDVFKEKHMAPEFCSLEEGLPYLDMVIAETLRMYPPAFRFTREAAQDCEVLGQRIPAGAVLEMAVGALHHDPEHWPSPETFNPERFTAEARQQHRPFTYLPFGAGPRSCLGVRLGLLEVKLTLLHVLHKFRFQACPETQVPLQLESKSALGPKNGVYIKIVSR

[3] = biological target: Protein phosphatase 3 catalytic subunit alpha (Homo sapiens, UniProt Q08209); set-up: species or system Escherichia coli;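 further: inhibition of calcineurin (PP2B) enzyme activity, measured with DiFMUP as the substrate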
[4] = biological target: Insulin receptor (Rattus norvegicus, UniProt P15127); assay type: cell membranes, Wistar, Liver, Membrane
[5] = biological target: Matrix metalloproteinase-9 (Homo sapiens, UniProt P14780); assay type: cell-based;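 further: inhibition of isolated MMP-9 enzyme activity toward a synthetic peptide substrate, from the DrugMatrix protease screening panel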
[6] = biological target: T2, Leukotriene C4 synthase (Cavia porcellus, UniProt A6XA80); assay type: tissue-based, Lung;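 further: enzyme inhibition assay of leukotriene C4 synthase, using LTA4 as the substrate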
T2 sequence (A6XA80 whole entry): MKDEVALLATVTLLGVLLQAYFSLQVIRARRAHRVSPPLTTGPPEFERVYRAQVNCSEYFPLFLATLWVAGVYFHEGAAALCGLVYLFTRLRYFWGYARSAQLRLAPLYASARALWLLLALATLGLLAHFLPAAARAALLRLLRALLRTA

[7] = biological target: T3, Interstitial collagenase (Homo sapiens, UniProt P03956); assay: biochemical; assay type: tissue-based, Rheumatoid synovial fibroblasts;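 further: MMP-1 enzyme inhibition assay using a peptide substrate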
T3 sequence (P03956 whole entry): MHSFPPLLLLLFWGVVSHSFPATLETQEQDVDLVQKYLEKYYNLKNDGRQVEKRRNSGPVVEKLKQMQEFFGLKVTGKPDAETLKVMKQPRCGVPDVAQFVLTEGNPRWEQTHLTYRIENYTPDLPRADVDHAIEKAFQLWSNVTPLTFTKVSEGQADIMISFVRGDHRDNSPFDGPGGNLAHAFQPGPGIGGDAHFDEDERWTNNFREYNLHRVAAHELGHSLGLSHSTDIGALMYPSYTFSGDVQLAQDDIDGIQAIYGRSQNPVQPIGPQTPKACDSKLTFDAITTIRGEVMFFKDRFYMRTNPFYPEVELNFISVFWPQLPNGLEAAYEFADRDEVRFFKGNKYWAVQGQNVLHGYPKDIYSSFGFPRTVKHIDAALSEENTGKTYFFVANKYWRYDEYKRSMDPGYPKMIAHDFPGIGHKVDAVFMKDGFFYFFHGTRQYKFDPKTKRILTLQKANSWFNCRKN

[8] = biological target: Melanocortin receptor 3 (Homo sapiens, UniProt P41968); assay type: cell membranes, Membrane; conditions: hek293
Further: in other assays of this panel Not Active means under 50% inhibition at 10 µM.

Sequence of Matrix metalloproteinase-9 (P14780 whole entry): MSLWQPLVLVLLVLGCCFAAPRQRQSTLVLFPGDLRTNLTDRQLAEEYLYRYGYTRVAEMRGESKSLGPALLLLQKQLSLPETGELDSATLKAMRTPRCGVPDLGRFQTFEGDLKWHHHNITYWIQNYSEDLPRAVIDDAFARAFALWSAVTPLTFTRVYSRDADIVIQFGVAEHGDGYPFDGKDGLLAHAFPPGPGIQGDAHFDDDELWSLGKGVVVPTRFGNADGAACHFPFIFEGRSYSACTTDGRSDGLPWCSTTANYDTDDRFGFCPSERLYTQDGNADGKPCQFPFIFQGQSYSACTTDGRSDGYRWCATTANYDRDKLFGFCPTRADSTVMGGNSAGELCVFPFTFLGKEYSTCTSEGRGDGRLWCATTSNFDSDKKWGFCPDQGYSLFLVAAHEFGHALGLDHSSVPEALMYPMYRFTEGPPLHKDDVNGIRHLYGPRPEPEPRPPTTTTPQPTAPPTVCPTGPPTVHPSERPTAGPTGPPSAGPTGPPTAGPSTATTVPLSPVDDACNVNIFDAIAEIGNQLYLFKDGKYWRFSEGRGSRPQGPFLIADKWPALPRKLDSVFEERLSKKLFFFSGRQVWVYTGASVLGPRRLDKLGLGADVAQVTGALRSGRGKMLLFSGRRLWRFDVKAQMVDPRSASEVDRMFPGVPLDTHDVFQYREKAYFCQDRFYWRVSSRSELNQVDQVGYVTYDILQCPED
Sequence of Substance-P receptor (P25103 whole entry): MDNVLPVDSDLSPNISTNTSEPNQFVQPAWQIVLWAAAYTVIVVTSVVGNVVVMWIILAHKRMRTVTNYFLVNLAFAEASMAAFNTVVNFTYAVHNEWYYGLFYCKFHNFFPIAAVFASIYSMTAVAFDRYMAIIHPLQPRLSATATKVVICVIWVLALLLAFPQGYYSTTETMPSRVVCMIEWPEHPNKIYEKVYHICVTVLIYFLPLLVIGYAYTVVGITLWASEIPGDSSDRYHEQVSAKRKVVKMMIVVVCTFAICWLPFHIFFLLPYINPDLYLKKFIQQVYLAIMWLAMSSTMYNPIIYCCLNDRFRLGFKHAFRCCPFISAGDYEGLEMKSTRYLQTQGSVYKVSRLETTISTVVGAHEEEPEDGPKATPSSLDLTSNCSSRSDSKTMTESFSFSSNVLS
Sequence of Melanocortin receptor 3 (P41968 whole entry): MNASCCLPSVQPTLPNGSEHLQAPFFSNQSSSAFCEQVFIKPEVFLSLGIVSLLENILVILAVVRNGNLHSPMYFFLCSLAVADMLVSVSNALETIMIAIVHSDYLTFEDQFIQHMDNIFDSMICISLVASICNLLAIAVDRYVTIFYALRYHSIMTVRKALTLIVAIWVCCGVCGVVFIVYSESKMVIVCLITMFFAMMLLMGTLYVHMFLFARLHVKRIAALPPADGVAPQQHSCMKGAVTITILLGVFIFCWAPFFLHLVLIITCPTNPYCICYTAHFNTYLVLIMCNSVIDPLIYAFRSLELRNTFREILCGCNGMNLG
Sequence of Insulin receptor (P15127 27-759 limits assumed): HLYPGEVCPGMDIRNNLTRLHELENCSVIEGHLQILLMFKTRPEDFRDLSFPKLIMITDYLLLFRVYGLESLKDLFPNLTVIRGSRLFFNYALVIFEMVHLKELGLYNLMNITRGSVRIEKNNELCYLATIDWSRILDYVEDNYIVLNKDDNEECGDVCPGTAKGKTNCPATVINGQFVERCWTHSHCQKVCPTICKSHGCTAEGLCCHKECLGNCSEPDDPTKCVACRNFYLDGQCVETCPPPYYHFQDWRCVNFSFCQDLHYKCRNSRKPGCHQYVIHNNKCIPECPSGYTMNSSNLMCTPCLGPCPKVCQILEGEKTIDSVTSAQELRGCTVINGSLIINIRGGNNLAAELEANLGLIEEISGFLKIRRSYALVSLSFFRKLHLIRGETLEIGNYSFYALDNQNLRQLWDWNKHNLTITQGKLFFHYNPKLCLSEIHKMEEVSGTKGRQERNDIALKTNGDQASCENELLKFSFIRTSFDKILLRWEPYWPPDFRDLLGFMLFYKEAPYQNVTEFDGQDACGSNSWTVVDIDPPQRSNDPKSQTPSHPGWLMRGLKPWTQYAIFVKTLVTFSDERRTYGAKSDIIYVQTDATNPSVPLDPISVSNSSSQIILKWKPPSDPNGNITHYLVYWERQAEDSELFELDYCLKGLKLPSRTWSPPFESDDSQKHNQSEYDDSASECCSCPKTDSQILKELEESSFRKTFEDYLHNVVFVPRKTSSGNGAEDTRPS
Sequence of Insulin receptor (P15127 764-1383 limits assumed): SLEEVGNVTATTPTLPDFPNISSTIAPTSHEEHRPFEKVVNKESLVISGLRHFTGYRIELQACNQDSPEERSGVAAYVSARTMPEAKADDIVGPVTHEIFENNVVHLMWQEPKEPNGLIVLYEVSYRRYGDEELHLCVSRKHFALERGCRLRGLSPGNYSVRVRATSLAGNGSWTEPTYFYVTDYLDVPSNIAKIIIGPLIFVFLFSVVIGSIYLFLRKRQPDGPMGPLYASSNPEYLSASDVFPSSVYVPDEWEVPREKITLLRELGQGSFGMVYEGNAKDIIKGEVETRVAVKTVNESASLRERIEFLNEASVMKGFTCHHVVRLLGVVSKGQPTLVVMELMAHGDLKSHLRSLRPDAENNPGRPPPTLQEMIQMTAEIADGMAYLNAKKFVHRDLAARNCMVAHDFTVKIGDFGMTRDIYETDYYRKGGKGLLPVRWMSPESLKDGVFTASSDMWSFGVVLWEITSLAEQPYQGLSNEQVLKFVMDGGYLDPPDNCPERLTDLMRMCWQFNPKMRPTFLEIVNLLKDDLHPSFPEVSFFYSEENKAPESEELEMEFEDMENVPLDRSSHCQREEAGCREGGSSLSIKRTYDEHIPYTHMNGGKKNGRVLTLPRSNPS

TRANSPLATIN
Not Active: IC50 [1] | Ki [1] | IC50 [2] | Ki [2] | IC50 [3] | Ki [3] | IC50 [4] | Ki [4] | IC50 [5] | Ki [5] | IC50 [6] | Ki [6] | IC50 [7] | Ki [7] | IC50 [8] | Ki [8]

ZIRCONIUM(IV) CHLORIDE
Not Active: IC50 [1] | Ki [1] | IC50 [2] | Ki [2] | IC50 [3] | Ki [3] | IC50 [4] | Ki [4] | IC50 [5] | Ki [5] | IC50 [6] | Ki [6] | IC50 [7] | Ki [7] | IC50 [8] | Ki [8]

From ChEMBL document CHEMBL1909046, “DrugMatrix in vitro pharmacology data”
